Several values for one entry are separate records, joined by “and”; a condition that tells them apart may be missing. Equal entries are not always repeated.
Assays:
[1] = system: day 8 chick dorsal root ganglia; test: Neurite outgrowth from dorsal root ganglia embedded in three dimensional peptide-modified fibrin gels, normalized to unmodified fibrin; assay type: cell-based; settings: for concentration of incorporated peptide giving maximal effect on neurite outgrowth / correlation between peptide concentration and level of enhancement of neurite outgrowth / peptide concentration showing maximal enhancement of neurite outgrowth: single peptide cross-linked into fibrin, concentration series; for concentration of incorporated peptide giving maximal effect on neurite outgrowth / peptide concentration showing maximal enhancement of neurite outgrowth: growth at 24 and 48 hr; for Enhancement of Neurite Outgrowth (%): bi-domain peptide cross-linked into fibrin at 8 mol/mol fg without heparin, 48 hours, relative to unmodified fibrin
Method: FIG. 1 Enhancement of neurite outgrowth with HAV (SEQ. I.D. NO. 6) modified fibrin gels. A concentration series of HAV (SEQ. I.D. NO. 6) cross-linked into fibrin was tested in triplicate with day 8 chick dorsal root ganglia. The level of growth at 24 and 48 hours was calculated and normalized to growth in unmodified fibrin. Mean and standard error of the mean are shown. Legend to FIG. 1: -[…]- 24 Hours, -⋄- 48 Hours.
FIG. 8 Heparin binding peptides derived from three separate proteins, NCAM (SEQ. I.D. NO. 7), platelet factor 4 and antithrombin III were cross-linked into fibrin at 8 mol/mol fg. The level of neurite outgrowth at 48 hours was normalized against growth in unmodified fibrin and is shown below. Additionally, controls of crosslinked peptide with heparin or just soluble peptide were tested. […] Mean and standard error of the mean are shown. Legend for FIG. 8: ? Peptide Grafted at 8 mol/mol Fg, □ Peptide Grafted at 8 mol/mol Fg with Soluble Heparin, ? Peptide Added in Soluble Phase.
Multiple peptide sequences from extracellular matrix proteins have been chosen. These proteins were chosen in part because of their reported ability to enhance neurite outgrowth (Yamada, 1991, Tashiro, et al., 1989). These proteins have been tested at various concentrations. To test these peptides, specific selected peptide sequences were cross-linked into a three dimensional fibrin matrix with a day 8 dorsal root ganglia embedded into the gels. The neurites were grown for 48 hr, and the migration rate of the neurites extending from the ganglia was quantified for each condition at both 24 and 48 hr. This growth was then normalized to the growth in unmodified fibrin. […] HAV (SEQ. I.D. NO. 6) achieved a maximal effect at 2 mol/mol fg while RGD (SEQ. I.D. NO. 2) achieved a maximal effect at 1.5 mol/mol fg of incorporated peptide.
In one example, the peptide was cross-linked into the gel alone and in the second example, it was incorporated in the presence of heparin. […] Therefore, the effects of interaction between the growing neurites and either a heparin binding domain or heparin itself could be determined. When the peptide was incorporated without heparin present, it was able to enhance the extension of neurites from day 8 chick dorsal root ganglia. Three bi-domain peptides, each with a different heparin binding domain, were tested and gave statistically better growth than unmodified fibrin (FIG. 8). The level of improvement ranged from 75% to 25%. This level of enhancement could be correlated to the binding affinity of the heparin binding domain that was incorporated (Table 3). When heparin was added at the beginning of the study, it was discovered that this abolished the effect, resulting in growth similar to that seen in unmodified fibrin.

[2] = Elution from heparin affinity column (relative heparin binding affinity); settings: relative heparin binding affinity of bi-domain peptide
Text: Table 3 Provides results of the relative heparin binding affinity and enhancement of three dimensional neurite outgrowth for several heparin binding peptides. There is a correlation between the binding strength for each peptide and the percent enhancement of neurite outgrowth.

| Substance | concentration of incorporated peptide giving maximal effect on neurite outgrowth [1] | correlation between peptide concentration and level of enhancement of neurite outgrowth [1] | peptide concentration showing maximal enhancement of neurite outgrowth [1] | Enhancement of Neurite Outgrowth (%) [1] [%] | Elution from Heparin Affinity Column (Mol NaCl) [2] [Mol NaCl] |
| --- | --- | --- | --- | --- | --- |
| HAV (heparin binding peptide) | 2 mol/mol fg |  |  |  |  |
| IKVAV (heparin binding peptide) |  | linear correlation | 8 mol peptide/mol fibrinogen |  |  |
| LNQEQVSP K(βA)FAKLAARLYRKA [ATIII] |  |  |  | 73.1 | 0.67 |
| LNQEQVSP KHKGRDVILKKDVR (LNQEQVSPKHKGRDVILKKDVR; heparin binding sequence) [PF4] |  |  |  | 20.2 | 0.34 |
| LNQEQVSP YKKIIKKL (LNQEQVSPYKKIIKKL) [NCAM] |  |  |  | 24.5 | 0.35 |
| RGD | 2 mol/mol fg and 1.5 mol/mol fg |  |  |  |  |
| RNIAEIIKDI |  | linear correlation | 8 mol peptide/mol fibrinogen |  |  |
| YIGSR (heparin binding peptide) |  | linear correlation | 6 mol peptide/mol fibrinogen |  |  |

Source: patent publication US20030119186A1, “Enzyme-mediated modification of fibrin for tissue engineering: fibrin formulations with peptides” (Eidgenossische Technische Hochschule Zurich, priority 1998, published 2003)
